Measurements reported in patent EP4782448A1, “SUBSTITUTED PYRIDOTRIAZOLE COMPOUND, AND PREPARATION METHOD THEREFOR AND USE THEREOF” (Origiant Pharmaceutical Co., Ltd., priority 2023, dated 2025).

target: T1, RIPK1 Kinase (Homo sapiens, UniProt Q13546); experiment: biochemical; conditions: not given
T1 construct: purchased Eurofins (Kinase Profiler service)
T1 sequence (Q13546 1-671): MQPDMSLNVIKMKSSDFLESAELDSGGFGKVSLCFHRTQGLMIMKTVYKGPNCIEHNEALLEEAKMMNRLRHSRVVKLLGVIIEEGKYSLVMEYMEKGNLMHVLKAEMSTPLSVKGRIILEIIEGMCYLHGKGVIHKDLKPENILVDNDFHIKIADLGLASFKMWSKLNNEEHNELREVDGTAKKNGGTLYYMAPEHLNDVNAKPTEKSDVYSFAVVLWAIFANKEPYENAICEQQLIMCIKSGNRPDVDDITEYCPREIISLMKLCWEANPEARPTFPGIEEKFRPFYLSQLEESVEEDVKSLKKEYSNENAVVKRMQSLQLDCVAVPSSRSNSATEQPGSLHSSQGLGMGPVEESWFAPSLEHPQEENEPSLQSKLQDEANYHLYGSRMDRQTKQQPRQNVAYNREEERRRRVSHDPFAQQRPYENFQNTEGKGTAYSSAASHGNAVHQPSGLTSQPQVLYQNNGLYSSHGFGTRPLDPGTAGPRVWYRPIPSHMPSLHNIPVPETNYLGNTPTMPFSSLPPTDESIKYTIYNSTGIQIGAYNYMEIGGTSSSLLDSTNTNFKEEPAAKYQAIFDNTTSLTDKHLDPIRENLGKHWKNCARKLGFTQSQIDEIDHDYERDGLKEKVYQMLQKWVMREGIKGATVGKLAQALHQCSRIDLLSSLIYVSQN

Row | Structure (SMILES) | IC50
1 | C[C@H](NC(=O)c1cn(C)c2ccc(-c3ccn4nc(NC(=O)CN5CCOC(C)(C)C5)nc4c3)cc12)c1ccc(F)cc1 [Compound 18] | 10 to 100 nM
2 | C[C@H](NC(=O)c1cn(C)c2ccc(-c3ccn4nc(NC(=O)CN(C)C)nc4c3)cc12)c1ccc(F)cc1 [Compound 40] | 10 to 100 nM
3 | C[C@H](NC(=O)c1cn(C)c2ccc(-c3ccn4nc(NC(=O)CN5CCOC[C@@H]5C)nc4c3)cc12)c1ccc(F)cc1 [Compound 60] | 10 to 100 nM
4 | Cn1cc(C(=O)N[C@H]2CCc3ccc(F)cc32)c2cc(-c3ccn4nc(NC(=O)[C@H]5CCCO5)nc4c3)ccc21 [Compound 121] | 10 to 100 nM
5 | C[C@H](NC(=O)c1cn(C)c2ccc(-c3ccn4nc(NC(=O)CN5CC(F)(F)C5)nc4c3)cc12)c1ccc(F)cc1 [Compound 42] | 10 to 100 nM
6 | C[C@@H]1CN(CC(=O)Nc2nc3cc(-c4ccc5c(c4)c(C(=O)N[C@@H](C)c4ccc(F)cc4)cn5C)ccn3n2)C[C@H](C)O1 [Compound 46] | 10 to 100 nM
7 | C[C@H](NC(=O)c1cn(C)c2ccc(-c3ccn4nc(NC(=O)CN5CCC(O)CC5)nc4c3)cc12)c1ccc(F)cc1 [Compound 6] | 10 to 100 nM
8 | C[C@H](NC(=O)c1cn(C)c2ccc(-c3ccn4nc(NC(=O)[C@@H]5CCC(=O)N5)nc4c3)cc12)c1ccc(F)cc1 [Compound 14] | 10 to 100 nM
9 | Cn1cc(C(=O)N[C@H](c2ccc(F)cc2)C(F)F)c2cc(-c3ccn4nc(NC(=O)C5CC5)nc4c3)ccc21 [Compound 161] | 1 to 10 nM
10 | C[C@H](NC(=O)c1cn(C)c2ccc(-c3ccn4nc(NC(=O)CN5CCC6(CC5)OCCO6)nc4c3)cc12)c1ccc(F)cc1 [Compound 27] | 10 to 100 nM
11 | C[C@H](NC(=O)c1cn(C)c2ccc(-c3ccn4nc(NC(=O)CN5CCN(C)CC5)nc4c3)cc12)c1ccc(F)cc1 [Compound 51] | 10 to 100 nM
12 | CC(C(=O)Nc1nn(C)c2ccc(-c3ccn4nc(NC(=O)C5CC5)nc4c3)cc12)c1ccc(F)cc1 (centres unmarked) [Compound 182] | 100 to 1000 nM
13 | C[C@H](NC(=O)c1cn(C)c2ccc(-c3ccn4nc(NC(=O)CN5CCC(N6CCOCC6)CC5)nc4c3)cc12)c1ccc(F)cc1 [Compound 38] | 10 to 100 nM
14 | C[C@H](NC(=O)c1cn(C)c2ccc(-c3ccn4nc(NC(=O)C(=O)N5CCOCC5)nc4c3)cc12)c1ccc(F)cc1 [Compound 9] | 10 to 100 nM
15 | C[C@H](NC(=O)c1cn(C)c2ccc(-c3ccn4nc(NC(=O)CN5CC6CCC(C5)O6)nc4c3)cc12)c1ccc(F)cc1 [Compound 71] | 10 to 100 nM
16 | C[C@H](NC(=O)c1cn(C)c2ccc(-c3ccn4nc(NC(=O)CN5CC(C)(C#N)C5)nc4c3)cc12)c1ccc(F)cc1 [Compound 29] | 10 to 100 nM
17 | Cn1cc(C(=O)N[C@H]2CCc3cc(C#N)ccc32)c2cc(-c3ccn4nc(NC(=O)C5CC5)nc4c3)ccc21 [Compound 130] | 10 to 100 nM
18 | C[C@H](NC(=O)c1cn(C)c2ccc(-c3ccn4nc(NC(=O)C5CCOC5)nc4c3)cc12)c1ccc(F)cc1 (some centres unmarked) [Compound 106] | 10 to 100 nM
19 | C[C@H](NC(=O)c1cn(C)c2ccc(-c3ccn4nc(NC(=O)CN5C[C@H]6C[C@@H]5CO6)nc4c3)cc12)c1ccc(F)cc1 [Compound 39] | 10 to 100 nM

same assay, conditions: compound 0.001-10 µM; read-out: RIPK1(IC50)

Row | IC50 | Structure (SMILES)
20 | 10 to 100 nM | CC(=O)Nc1nc2cc(-c3ccc4c(c3)c(C(=O)N[C@H]3CCCc5cc(F)ccc53)cn4C)ccn2n1 [Compound 138]

tested on: HT-29 cells; experiment: In vitro assay for protection of HT-29 cells from necroptosis (TNFα/Smac mimetic/Z-VAD-FMK induction, CCK8 readout); assay type: cell-based; conditions: TNFα/Smac mimetic/Z-VAD-FMK for 24 h; inhibition of necroptosis; read-out: HT-29 (EC50)

Row | Structure (SMILES) | EC50
21 | Cn1cc(C(=O)N[C@@H](CF)c2ccc(F)cc2)c2cc(-c3ccn4nc(NC(=O)[C@H]5CCCO5)nc4c3)ccc21 [Compound 104] | 1000 to 10000 nM
22 | C[C@H](NC(=O)c1cn(C)c2ccc(-c3ccn4nc(NC(=O)CN5CCS(=O)(=O)CC5)nc4c3)cc12)c1ccc(F)cc1 [Compound 28] | 1 to 10 nM
23 | C[C@@H]1CN(CC(=O)Nc2nc3cc(-c4ccc5c(c4)c(C(=O)N[C@@H](C)c4ccc(Cl)cc4)cn5C)ccn3n2)C[C@H](C)O1 [Compound 85] | < 1 nM
24 | Cn1nc(C(=O)N[C@@H](CF)c2ccc(F)cc2)c2cc(-c3ccn4nc(NC(=O)C5CC5)nc4c3)ccc21 [Compound 190] | < 1 nM
25 | C[C@H](NC(=O)c1cn(C)c2ccc(-c3ccn4nc(NC(=O)CN5CCC[C@H](O)C5)nc4c3)cc12)c1ccc(F)cc1 [Compound 7] | < 1 nM
26 | Cn1cc(C2=NC(c3ccc(F)cc3)CO2)c2cc(-c3ccn4nc(NC(=O)C5CC5)nc4c3)ccc21 (centres unmarked) [Compound 212] | 10 to 100 nM
27 | C[C@H](NC(=O)c1nn(C)c2ccc(-c3ccn4nc(NC(=O)N5CCOCC5)nc4c3)cc12)c1ccc(F)cc1 [Compound 195] | < 1 nM
28 | C[C@H](NC(=O)c1cn(C)c2ccc(-c3ccn4nc(NC(=O)CN5CC[C@@H](F)C5)nc4c3)cc12)c1ccc(F)cc1 [Compound 20] | < 1 nM
29 | C[C@H](NC(=O)c1cn(C)c2ccc(-c3ccn4nc(NC(=O)CN5CCOCC5C(=O)O)nc4c3)cc12)c1ccc(F)cc1 (some centres unmarked) [Compound 33] | 1000 to 10000 nM
30 | C[C@H](NC(=O)c1cn(C)c2ccc(-c3ccn4nc(NC(=O)CN5CCC[C@@H](O)C5)nc4c3)cc12)c1ccc(F)cc1 [Compound 49] | 1 to 10 nM
31 | CC[C@H](NC(=O)c1cn(C)c2ccc(-c3ccn4nc(NC(=O)CN5CCOCC5)nc4c3)cc12)c1ccc(F)cc1 [Compound 197] | < 1 nM
32 | CN1CCC(C(=O)Nc2nc3cc(-c4ccc5c(c4)c(C(=O)N[C@H](c4ccc(F)cc4)C(F)F)cn5C)ccn3n2)C1 (some centres unmarked) [Compound 168] | < 1 nM
33 | C[C@H](NC(=O)c1cn(C)c2ccc(-c3ccn4nc(NC(=O)CN5CC(C#N)C5)nc4c3)cc12)c1ccc(F)cc1 [Compound 34] | < 1 nM
34 | COCCOCCOCC(=O)Nc1nc2cc(-c3ccc4c(c3)c(C(=O)N[C@@H](C)c3ccc(F)cc3)cn4C)ccn2n1 [Compound 25] | < 1 nM
35 | COC1CCN(CC(=O)Nc2nc3cc(-c4ccc5c(c4)c(C(=O)N[C@@H](C)c4ccc(F)cc4)cn5C)ccn3n2)C1 (some centres unmarked) [Compound 19] | < 1 nM
36 | CN(C(=O)c1cn(C)c2ccc(-c3ccn4nc(NC(=O)C5CC5)nc4c3)cc12)[C@H]1CCc2cc(F)ccc21 [Compound 205] | 1 to 10 nM
37 | CC(C(=O)Nc1cn(C)c2ccc(-c3ccn4nc(NC(=O)C5CC5)nc4c3)cc12)c1ccc(F)cc1 (centres unmarked) [Compound 177] | 10 to 100 nM
38 | COCC(=O)Nc1nc2cc(-c3ccc4c(c3)c(C(=O)N[C@@H](CF)c3ccc(F)cc3)cn4C)ccn2n1 [Compound 97] | < 1 nM

Row | Structure (SMILES) | EC50
39 | C[C@H](NC(=O)c1nn(C)c2ccc(-c3ccn4nc(NC(=O)C5CC5)nc4c3)cc12)c1ccc(F)cc1 [Compound 192] | < 1 nM
40 | C[C@H](NC(=O)c1cn(C)c2ccc(-c3ccn4nc(NC(=O)CC(=O)O)nc4c3)cc12)c1ccc(F)cc1 [Compound 63] | 1000 to 10000 nM
41 | CC(=O)Nc1nc2cc(-c3ccc4c(c3)c(C(=O)N[C@@H]3C[C@H]3c3ccc(F)c(F)c3)cn4C)ccn2n1 [Compound 125] | 1000 to 10000 nM
42 | C[C@H](NC(=O)c1cn(C)c2ccc(-c3ccn4nc(NC(=O)[C@H]5CCCO5)nc4c3)cc12)c1ccc(F)cc1 [Compound 117] | < 1 nM
43 | Cn1cc(C(=O)N[C@@H](CF)c2ccc(F)cc2)c2cc(-c3ccn4nc(NC(=O)N5CCOCC5)nc4c3)ccc21 [Compound 103] | < 1 nM
44 | CCN(CC)CC(=O)Nc1nc2cc(-c3ccc4c(c3)c(C(=O)N[C@@H](C)c3ccc(F)cc3)cn4C)ccn2n1 [Compound 36] | < 1 nM
45 | Cn1cc(C(=O)N[C@@H](CF)c2ccc(F)cc2)c2cc(-c3ccn4nc(NCC5CC5)nc4c3)ccc21 [Compound 108] | < 1 nM
46 | CC(C(=O)Nc1cn(C)c2ccc(-c3ccn4nc(NC(=O)[C@H]5CCCO5)nc4c3)cc12)c1ccc(F)cc1 (some centres unmarked) [Compound 178] | 100 to 1000 nM
47 | C[C@H](NC(=O)c1cn(C)c2ccc(-c3ccn4nc(NC(=O)CN5CCSCC5)nc4c3)cc12)c1ccc(Cl)cc1 [Compound 87] | < 1 nM
48 | CC(C(=O)Nc1cn(C)c2ccc(-c3ccn4nc(NC(=O)[C@H]5CCCO5)nc4c3)cc12)c1ccc(F)cc1 (some centres unmarked) [Compound 179] | 100 to 1000 nM
49 | C[C@H](NC(=O)c1cn(C)c2ccc(-c3ccn4nc(NC(=O)CN5C[C@H](O)CC5=O)nc4c3)cc12)c1ccc(F)cc1 [Compound 4] | 10 to 100 nM
50 | C[C@H](NC(=O)c1cn(C)c2ccc(-c3ccn4nc(NC(=O)c5cnn(C)c5)nc4c3)cc12)C(C)(C)C [Compound 91] | 1000 to 10000 nM
51 | Cn1nc(C(=O)N[C@@H](CF)c2ccc(F)cc2)c2cc(-c3ccn4nc(NC(=O)N5CCOCC5)nc4c3)ccc21 [Compound 189] | < 1 nM
52 | C[C@H](NC(=O)c1cn(C)c2ccc(-c3ccn4nc(NC(=O)CN5CC[C@@H](O)C5)nc4c3)cc12)c1ccc(F)cc1 [Compound 12] | < 1 nM
53 | CN(C)CC(=O)Nc1nc2cc(-c3ccc4c(c3)c(C(=O)N[C@@H](CF)c3ccc(F)cc3)cn4C)ccn2n1 [Compound 101] | < 1 nM
54 | C[C@H](NC(=O)c1cn(C)c2ccc(-c3ccn4nc(NC(=O)CN5CC[C@H](O)C5)nc4c3)cc12)c1ccc(F)cc1 [Compound 41] | < 1 nM
55 | CO[C@@H](C)C(=O)Nc1nc2cc(-c3ccc4c(c3)c(C(=O)N[C@@H](CF)c3ccc(F)cc3)cn4C)ccn2n1 [Compound 98] | < 1 nM
56 | C[C@H](NC(=O)c1cn(C)c2ccc(-c3ccn4nc(NC(=O)CNCC5CC5)nc4c3)cc12)c1ccc(F)cc1 [Compound 66] | < 1 nM
